This is an account of results in patent US9474275B2, “Cyanoenamines and their use as fungicides” (priority 2010, dated 2016).

Like-named read-outs stand apart in the source and are kept apart here. Marks after values point to notes of the source that are not given here.

One data set concerns Phytophthora infestans. Format: in vivo. The following applies: tomato plants, preventive spray, 500 ppm of active ingredient, evaluated 7 days after inoculation; 0% = untreated control, 100% = no disease.
The next data set deals with Plasmopara viticola. Description: Plasmopara test (grapevines) / preventive. Format: in vivo. To be noted: grapevine plants, preventive spray, 100 ppm of active ingredient, evaluated 6 days after inoculation; 0% = untreated control, 100% = no disease. The protocol: Solvent: 24.5 parts by weight of acetone • 24.5 parts by weight of dimethylacetamide
Emulsifier: 1 part by weight of alkylaryl polyglycol ether
To produce a suitable preparation of active compound, 1 part by weight of active compound is mixed with the stated amounts of solvent and emulsifier, and the concentrate is diluted with water to the desired concentration. To test for preventive activity, young plants are sprayed with the preparation of active compound at the stated rate of application. After the spray coating has dried on, the plants are inoculated with an aqueous spore suspension of Plasmopara viticola and then remain for 1 day in an incubation cabinet at approximately 20° C. and a relative atmospheric humidity of 100%. The plant is subsequently placed for 4 days in a greenhouse at approximately 21° C. and a relative atmospheric humidity of approximately 90%. The plants are then misted and placed for 1 day in an incubation cabinet. The test is evaluated 6 days after the inoculation. 0% means an efficacy which corresponds to that of the untreated control, while an efficacy of 100% means that no disease is observed.

For data set [1] the following is noted: method [a]: LC-MS at pH 2.7, 0.1% formic acid in water / acetonitrile, linear gradient 10% to 95% acetonitrile.
Protocol: Measurement of log P values was performed according EEC directive 79/831 Annex V.A8 by HPLC (High Performance Liquid Chromatography) on reversed phase columns with the following methods:
^[a] measurement of LC-MS was done at pH 2.7 with 0.1% formic acid in water and with acetonitrile (contains 0.1% formic acid) as eluent with a linear gradient from 10% acetonitrile to 95% acetonitrile.

As to `COCC(=O)C(C#N)=C(NC(C)C(C)C)c1cn(C)nc1C(F)F` (stereo not drawn) [Compound 56], the efficacy worked out at 95% in the data set on Phytophthora infestans and 78% with Plasmopara viticola. Where the note is “pH 2.7”, the LogP was 2.42^[a].

Turning to `CC(NC(=C(C#N)C(=O)CC1CC1)c1cn(C)nc1C(F)F)c1nccs1` (stereo not drawn) [Compound 81], the efficacy was 95% in the data set on Phytophthora infestans and 92% with Plasmopara viticola. The LogP (pH 2.7) was 2.59^[a].

With `CCCC(=O)C(C#N)=C(NC(C)C(C)C)c1ccc(Cl)nc1Cl` (stereo not drawn) [Compound 90], the efficacy with Phytophthora infestans was found to be 97%; with Plasmopara viticola, 96%. The LogP (pH 2.7) was 4.31^[a].

Take `CC=CC(=O)C(C#N)=C(NC(C)C(C)C)c1cccnc1Cl` (stereo not drawn) [Compound 75]: the figures for the efficacy in the data set with Phytophthora infestans and with Plasmopara viticola were 90% and 88%, respectively. The LogP (pH 2.7) was 3.35^[a].

For the compound `CCC(=O)C(C#N)=C(NC(C)C(C)C)c1cccnc1Cl` (stereo not drawn) [Compound 5], the efficacy was 100% with Phytophthora infestans and 93% in the data set with Plasmopara viticola. For the same compound, the LogP reads like this: (pH 2.7) 3.11^[a]; (pH 7.5) 3.09^[b].

In the case of `CCCC(=O)C(C#N)=C(NC(C)COC)c1ccnn1C(F)F` (stereo not drawn) [Compound 98], the efficacy with Phytophthora infestans is listed as 100%; in the data set on Plasmopara viticola, 94%. Besides, the LogP (pH 2.7) is 2.73^[a].

As to `CC(NC(=C(C#N)C(=O)CC1CC1)c1cccnc1Cl)C1(Cl)CC1` (racemic) [Compound 27], the efficacy in the data set on Phytophthora infestans turned out to be 93%; in the data set on Plasmopara viticola, 95%. The LogP (pH 2.7) is 3.39^[a].

Take `CCCC(=O)C(C#N)=C(NC(C)COC)c1cccnc1Cl` (stereo not drawn) [Compound 83]: the efficacy with Phytophthora infestans and in the data set with Plasmopara viticola was 100% in each case.

Consider `CCCC(=O)C(C#N)=C(NC(C)C(C)C)c1cccnc1Cl` (stereo not drawn) [Compound 20], for which the efficacy is 100% in the data set on Phytophthora infestans and 87% in the data set on Plasmopara viticola. For the same compound, under “pH 2.7”, the LogP was 3.69^[a].

With `C#CC(C)NC(=C(C#N)C(=O)CCC)c1cn(C)nc1C(F)F` (racemic) [Compound 124], the efficacy with Phytophthora infestans turned out to be 93%. Moreover, in data set [1], the LogP is 2.66^[a].

Turning to `CCCC(=O)C(C#N)=C(NC(C)C1(C)CC1)c1cccnc1Cl` (racemic) [Compound 103], the efficacy in the data set with Phytophthora infestans was 95%. In addition, the LogP in data set [1] was 3.57^[a].

With `CCCC(=O)C(C#N)=C(NC(C)c1ncc(C)s1)c1cccnc1Cl` (racemic) [Compound 107], the efficacy in the data set on Phytophthora infestans worked out at 95%; in the data set on Plasmopara viticola it was 100%. Further, the LogP (pH 2.7) was 3.19^[a].

`COCC(=O)C(C#N)=C(NC(C)C1(Cl)CC1)c1cccnc1Cl` (stereo not drawn) [Compound 36] registered an efficacy in the data set with Phytophthora infestans of 70%. Besides, the LogP in data set [1] is 2.44^[a].

For `CCCC(=O)C(C#N)=C(NC1CCC1)c1cccnc1Cl` [Compound 102], in the data set with Phytophthora infestans, the efficacy is reported as 80%. In data set [1], the LogP was 3.13^[a].

`CC(NC(=C(C#N)C(=O)C1CC1)c1cn(C)nc1C(F)F)C1CC1` (stereo not drawn) [Compound 59] returned an efficacy in the data set on Phytophthora infestans of 90%. Also, in data set [1], the LogP was 2.90^[a].

For `CCCC(=O)C(C#N)=C(NC(C)C1CC1)c1cn(C)nc1C(F)F` (stereo not drawn) [Compound 18], the efficacy in the data set on Phytophthora infestans is recorded as 95%; in the data set with Plasmopara viticola it was 91%. Further, where the note is “pH 2.7”, the LogP is 3.08^[a].

For the compound `CCCCC(=O)C(C#N)=C(NC(C)C(C)C)c1cccnc1Cl` (stereo not drawn) [Compound 16], the efficacy with Phytophthora infestans is 95%. Besides, in data set [1], the LogP is 4.06^[a].

As to `CCCC(=O)C(C#N)=C(NC(C)C(C)(C)C)c1cccnc1Cl` (stereo not drawn) [Compound 87], the efficacy in the data set with Phytophthora infestans and in the data set with Plasmopara viticola was 100% in each case.

Regarding `CC(C)C(C)NC(=C(C#N)C(=O)CC1CC1)c1cccnc1Cl` (stereo not drawn) [Compound 11], the efficacy in the data set with Phytophthora infestans was 100%; in the data set with Plasmopara viticola, 82%. Besides, the LogP (pH 2.7) was 3.55^[a].

For the compound `CCCC(=O)C(C#N)=C(NC(C)c1ccsn1)c1cccnc1Cl` (stereo not drawn) [Compound 85], the efficacy with Phytophthora infestans is on record as 97%; in the data set on Plasmopara viticola, 87%.

Take `CCCC(=O)C(C#N)=C(NC1(CC2CC2)CC1)c1cn(C)nc1C(F)F` [Compound 119]: the efficacy with Phytophthora infestans is given as 93%. In data set [1], the LogP is 3.44^[a].

In the data set with Phytophthora infestans, `CCC(=O)C(C#N)=C(NC(C)C(C)C)c1cn(C)nc1C(F)F` (stereo not drawn) [Compound 23] yielded an efficacy of 93%. Also, in data set [1], the LogP was 2.92^[a].

On to `COCC(=O)C(C#N)=C(NC(C)c1ccccn1)c1cccnc1Cl` (stereo not drawn) [Compound 1], for which, in the data set on Phytophthora infestans, the efficacy was 93%. Moreover, the LogP in data set [1] is 1.78^[a].

In the case of `CC(NC(=C(C#N)C(=O)C1CCC1)c1cn(C)nc1C(F)F)C1CC1` (stereo not drawn) [Compound 70], the efficacy in the data set on Phytophthora infestans is on record as 80%. The LogP in data set [1] was 3.25^[a].

`CCCC(=O)C(C#N)=C(NC(C)C1(Cl)CC1)c1cccnc1Cl` (stereo not drawn) [Compound 33]: the efficacy is recorded as 90% with Phytophthora infestans and 93% with Plasmopara viticola. The LogP (pH 2.7) is 3.44^[a].

Turning to `CCCC(=O)C(C#N)=C(NC(C)C(C)OC)c1cccnc1Cl` (mixture of isomers) [Compound 114], the efficacy in the data set on Phytophthora infestans came to 95%. Besides, in data set [1], the LogP was 3.02^[a].

In turn, `CCCC(=O)C(C#N)=C(NC(C)CC)c1cn(C)nc1C(F)F` (racemic) [Compound 122] yielded an efficacy in the data set with Phytophthora infestans of 90%. Further, the LogP in data set [1] was 2.98^[a].

`CC#CC(C)NC(=C(C#N)C(=O)CCC)c1cccnc1Cl` (racemic) [Compound 113] gave an efficacy with Phytophthora infestans of 85%. The LogP in data set [1] was 3.09^[a].

On to `CCC1CC1NC(=C(C#N)C(=O)CC1CC1)c1cccnc1Cl` (stereo not drawn) [Compound 72], for which the efficacy in the data set with Phytophthora infestans was determined as 100%. Further, in data set [1], the LogP is 3.46^[a].

Take `CC(NC(=C(C#N)C(=O)CC1CC1)c1cn(C)nc1C(F)F)C1CC1` (stereo not drawn) [Compound 64]: the values for the efficacy in the data set on Phytophthora infestans and with Plasmopara viticola were 98% and 94%, respectively. Also, the LogP (pH 2.7) was 3.04^[a].

For the compound `CC(C)C(C)NC(=C(C#N)C(=O)C1CCC1)c1cccnc1Cl` (stereo not drawn) [Compound 44], the efficacy with Phytophthora infestans is 85%. Also, the LogP in data set [1] is 3.80^[a].

`CCCC(=O)C(C#N)=C(NC(C)CCC)c1cn(C)nc1C(F)F` (racemic) [Compound 129] displayed an efficacy in the data set with Phytophthora infestans of 75%. The LogP in data set [1] was 3.33^[a].

In the data set with Phytophthora infestans, `CCCC(=O)C(C#N)=C(NC(C)CC1CC1)c1cn(C)nc1C(F)F` (racemic) [Compound 130] displayed an efficacy of 85%. In data set [1], the LogP is 3.35^[a].

Take `CCCC(=O)C(C#N)=C(NC(C)COCC)c1cccnc1Cl` (stereo not drawn) [Compound 86]: the efficacy with Phytophthora infestans was found to be 97%; in the data set on Plasmopara viticola, 90%.

Turning to `CC(C)C(C)NC(=C(C#N)C(=O)C1CC1)c1cn(C)nc1C(F)F` (stereo not drawn) [Compound 52], the efficacy in the data set on Phytophthora infestans came out at 75%. Moreover, the LogP in data set [1] is 3.11^[a].

In the case of `CC(C)CC(=O)C(C#N)=C(NC(C)C(C)C)c1cccnc1Cl` (stereo not drawn) [Compound 40], the efficacy in the data set with Phytophthora infestans came to 75%. In addition, the LogP in data set [1] is 3.90^[a].

In the data set on Phytophthora infestans, `CCCC(=O)C(C#N)=C(NC1CCC1)c1cn(C)nc1C(F)F` [Compound 120] came in with an efficacy of 90%. Also, in data set [1], the LogP is 2.88^[a].

As to `CC(C)C(C)NC(=C(C#N)C(=O)C1CCC1)c1cn(C)nc1C(F)F` (stereo not drawn) [Compound 34], the efficacy in the data set with Phytophthora infestans stood at 90%. The LogP in data set [1] was 3.46^[a].

Compound `COCCC(=O)C(C#N)=C(NC(C)C(C)C)c1cn(C)nc1C(F)F` (stereo not drawn) [Compound 62] registered an efficacy in the data set with Phytophthora infestans of 75%. Further, the LogP in data set [1] was 2.64^[a].

With `CCCC(=O)C(C#N)=C(NC(C)c1c(F)cccc1F)c1cccnc1Cl` (stereo not drawn) [Compound 106], the efficacy in the data set on Phytophthora infestans is on record as 75%. Besides, the LogP in data set [1] was 3.46^[a].

In the case of `CC(C)C(C)NC(=C(C#N)C(=O)C1CCOC1)c1cccnc1Cl` (stereo not drawn) [Compound 28], the LogP (pH 2.7) is 2.70^[a].

On to `CCCC(=O)C(C#N)=C(NC(C)c1c(F)cccc1F)c1cn(C)nc1C(F)F` (stereo not drawn) [Compound 110], for which, in the data set with Phytophthora infestans, the efficacy is 95%. Moreover, the LogP in data set [1] was 3.46^[a].

With `CCCC(=O)C(C#N)=C(NC(C)C1(C)CC1)c1cn(C)nc1C(F)F` (racemic) [Compound 121], in the data set on Phytophthora infestans, the efficacy was determined as 93%. Besides, the LogP in data set [1] is 3.33^[a].

The compound `CCCC(=O)C(C#N)=C(NC(C)c1ccco1)c1cn(C)nc1C(F)F` (racemic) [Compound 132] came in with an efficacy with Phytophthora infestans of 90%. In addition, the LogP in data set [1] was 3.04^[a].

Regarding `C#CC(C)NC(=C(C#N)C(=O)CCC)c1cccnc1Cl` (racemic) [Compound 112], the efficacy in the data set on Phytophthora infestans is 83%. In addition, in data set [1], the LogP is 2.9^[a].

Consider `CCCC(=O)C(C#N)=C(NC(C)C(=O)OCC)c1cn(C)nc1C(F)F` (racemic) [Compound 131], for which the efficacy in the data set with Phytophthora infestans is reported as 80%. The LogP in data set [1] was 2.78^[a].

For `CCCC(=O)C(C#N)=C(NC(C)COC)c1cccnc1C` (stereo not drawn) [Compound 91], the efficacy with Phytophthora infestans is 100%. Further, in data set [1], the LogP was 2.14^[a].

Compound `CCCC(=O)C(C#N)=C(NC1(CC2CC2)CC1)c1cccnc1Cl` [Compound 101] had an efficacy in the data set on Phytophthora infestans of 95%. The LogP in data set [1] is 3.79^[a].

`CCCC(=O)C(C#N)=C(NC(C)c1nccs1)c1cccnc1Cl` (stereo not drawn) [Compound 26] yielded an efficacy in the data set with Phytophthora infestans of 100%. Besides, the LogP in data set [1] was 2.61^[a].
